Results published in US8003630B2, “Combinatorial therapies for the treatment of neoplasias using the opioid growth factor receptor” (The Penn State Research Foundation, priority 2004, dated 2011).
Marks after values point to notes of the source that are not given here.

Experiments:
SCC-1 SCCHN cells [1] = assay: SCC-1 SCCHN tumors in athymic nude mice (Examples 1c and 2)
Description: (§4) Tumor dimensions were recorded every day beginning on the day that the tumors were considered measurable.

MIA PaCa-2 cells = assay: MIA PaCa-2 xenograft in nude mice, tumor appearance, growth and termination day measurements (Example 7); assay type: in vivo, BALB/c-nu/nu nude mice
Text: Male 4 week old BALB/c-nu/nu nude mice purchased from Harlan Laboratories (Indianapolis, Ind.) were housed in pathogen-free isolators in the Department of Comparative Medicine at the Penn State University College of Medicine. All procedures were approved by the IACUC committee of the Penn State University College of Medicine and conformed to the guidelines established by NIH. Mice were allowed 48 hr to acclimate prior to beginning experimentation.
MIA PaCa-2 cells (10^6 cells/mouse) were inoculated into nude mice by subcutaneous injection into the right scapular region; mice were not anesthetized for this procedure.
All drugs were dissolved in saline and prepared weekly. Injections were given within 1 hr of tumor cell inoculation.
Mice were weighed weekly throughout the experiment, and observed daily for the presence of tumors. The latency for a visible tumor to appear, and the time until tumors were measurable (i.e., 62.5 mm^3) were recorded. Tumors were measured using calipers every day after tumor appearance. Tumor volume was calculated using the formula w^2×1×π/6, where the length is the longest dimension, and width is the dimension perpendicular to length.
According to IACUC guidelines, mice were terminated when tumors became ulcerated, or tumors grew to 2 cm in diameter. Forty-five days following tumor cell inoculation, all mice were euthanized by an overdose of sodium pentobarbital (100 mg/kg) and killed by cervical dislocation; mice (with tumors) were weighed. Tumors and spleens were removed and weighed, and the lymph nodes, liver, and spleen examined for metastases.

MiaPaCa-2 cells [2] = assay: Gemcitabine and OGF cell cycle phase analysis by flow cytometry; assay type: cell-based, human; settings: 2 to 24 hours after OGF exposure
Description: To investigate the exact cell cycle phase where gemcitabine and/or OGF exerted their effects, flow cytometry was performed.

MiaPaCa-2 cells [3] = assay: OGF/gemcitabine treatment in athymic nude mouse model (Example 5); assay type: in vivo, athymic nude mice
Description: To examine the effectiveness of the combined OGF/gemcitabine treatments in vivo, an athymic nude mouse model was used.

CAL-27 cells = assay: Cell proliferation assay of CAL-27 cells; assay type: cell-based, human; settings: 48 hr; for fewer cells than in control cultures: OGF 10^−6 M and/or paclitaxel 10^−10 M
Description: (§1) The UM-SCC-1 cell line (SCC-1) was derived from a well-differentiated recurrent squamous cell carcinoma in the floor of the mouth of a person (25). This cell line was obtained from The University of Michigan, Cancer Research Laboratory (Thomas E. Carey, Ph.D., Director). CAL-27 human squamous cell carcinoma cell line, derived from a poorly differentiated carcinoma of the tongue in a person ([…]), was obtained from the American Type Culture Collection (Manassas, Va.). Both cell lines were grown in Dulbecco's MEM (modified) media supplemented with 10% fetal calf serum, 1.2% sodium bicarbonate, and antibiotics (5,000 Units/ml penicillin, 5 mg/ml streptomycin, 10 mg/ml neomycin). The cell cultures were maintained in a humidified atmosphere of 7% CO2/93% air at 37° C.
(§2) Cells were seeded at equivalent amounts into either 6-well or 96-well plates (Falcon) and counted 24 hr later to determine plating efficiency.
(§3) Cell number was recorded either by using the MTS proliferation bioassay (Cell Titer 96 One Solution, Promega, Madison, Wis.) and measuring absorbency after 4 hr on a Biorad (Model 3550) plate reader at 490 nm with a 750 nm background absorbance screening, or by directly counting cells. The MTS assay utilized 10 wells/treatment. For manual counts, cells were harvested by trypsinization with 0.25% trypsin/0.53 mM EDTA, centrif uiged, and counted with a hemacytometer. Cell viability was determined by trypan blue staining. At least two aliquots per well, and 4-10 wells/treatment, were counted at each time for manual counting.

[4] = tested on: advanced unresectable pancreatic adenocarcinoma; settings: some patients; cited from earlier work
PANC-1 cells = assay: Growth assay of PANC-1 cells in 6-well plates; assay type: cell-based, human; settings: 72 hr, OGF 10^−6 M and/or gemcitabine 10^−8 M
Description: MIA PaCa-2 and PANC-1 human pancreatic adenocarcinoma cell lines were purchased from the American Type Culture Collection (Manasass, Va.). MIA PaCa-2 cells were derived from an undifferentiated epithelial carcinoma occurring in the body and tail of the pancreas in a person. The PANC-1 cells were derived from an undifferentiated carcinoma from the head of the pancreas in a person. MIA PaCa-2 and PANC-1 cells were grown in Dulbecco's MEM (modified) media; media was supplemented with 10% fetal calf serum, 1.2% sodium bicarbonate, and antibiotics (5,000 Units/ml penicillin, 5 mg/ml streptomycin, 10 mg/ml neomycin), and the cells were maintained in a humidified atmosphere of 7% CO2/93% air at 37° C.
MIA PaCa-2 cells were seeded at equivalent amounts into either 75 cm^2 flasks, 6-well plates, or 96-well plates (Falcon) and counted 24 hr later to determine plating efficiency. […]
Cell number was recorded either by using a mitogenic bioassay, the MTS assay (Cell Titer 96 One Solution, Promega, Madison, Wis.), and measuring absorbency after 4 hr on a Biorad (Model 3550) plate reader at 490 nm, or by counting cells. For manual counts, cells were harvested with a solution of 0.25% trypsin/0.53 mM EDTA, centrif uiged, and counted with a hemacytometer. Cell viability was determined by trypan blue staining. At least two aliquots per flask or 4-10 wells/treatment were counted at each time.

SCC-1 cells = assay: Cell proliferation assays of SCC-1 cells (MTS or cell counting), Example 8; assay type: cell-based, human; settings: for rates of growth over the 4 day period: slopes of growth curves; for difference in cell number between reversal group and group continuing drug exposure: within 48 hr after withdrawal
Description: as §1, §2
The dosage of carboplatin selected was based on previous reports (27, 28), as well as preliminary studies in our laboratory.
as §3
For some experiments, the rate of growth over a 96-hr period of time was calculated using linear regression analyses. The slopes of the lines (number of cells/hr) were compared by analysis of variance. All calculations were performed with GraphPad Prism software.

SCC-1 SCCHN cells [5] = settings: athymic nude, mouse, in vivo
Description: as §4

[6] = SCC-1, 48 hr, OGF 10^−6 M and/or paclitaxel 10^−8 M
[7] = SCC-1, 72 hr, OGF 10^−6 M and/or paclitaxel 10^−8 M
[8] = SCC-1, 96 hr, OGF 10^−6 M and/or paclitaxel 10^−8 M

Molecule: [Met^5]-enkephalin [OGF]
- latency time for measurable (62.5 mm^3) tumors (SCC-1 SCCHN cells [1]; after tumor cell inoculation): ≤ 17 days
- latency to a visible tumor (SCC-1 SCCHN cells [1]; after tumor cell inoculation): ≤ 11 days
- reduction of tumor size versus control mice (SCC-1 SCCHN cells [1]; second timepoint (4th day of measurable tumors)): 26%
- delay in visible tumor development (SCC-1 SCCHN cells [1]; versus control mice): ~4 days
- day from which tumor volume differed from controls (MIA PaCa-2 cells; at least p<0.05): 14 days
- mice with measurable tumors (MIA PaCa-2 cells; day 10): 60%
- tumor volumes decreased from control values (MIA PaCa-2 cells; day 45): 46%
- Tumor Volume, mm^3 (MIA PaCa-2 cells; day 45, means ± SEM): 4849 ± 490*** mm^3
- Tumor Weight (MIA PaCa-2 cells; day 45, means ± SEM): 3.5 ± 0.5 g
- Latency to measurable tumor (MIA PaCa-2 cells; means ± SEM): 14.2 ± 0.8 days
- Latency to visible tumor (MIA PaCa-2 cells; means ± SEM): 10.7 ± 0.8 days
- Tumor Incidence, day 16 (MIA PaCa-2 cells; mice with tumor/N): 10/10
- Tumor Incidence, day 10 (MIA PaCa-2 cells; mice with tumor/N, OGF 10 mg/kg daily and/or gemcitabine 120 mg/kg every 3 days i.p.): 6/10
- weights of tumors decreased from control levels (MIA PaCa-2 cells; termination day (day 45)): 36%
- increase of cells in the G0/G1 phase of the cell cycle (MiaPaCa-2 cells [2]): no significant increases into the G0/G1 phase
- mice with tumors (MiaPaCa-2 cells [3]; day 16 after tumor cell inoculation): all mice
- tumors smaller than control mice, reduction (MiaPaCa-2 cells [3]; from the 6th timepoint (12th day of measurable tumor)): 29.9-40.7%
- fewer cells than in control cultures (CAL-27 cells): 25%
- longest survival of patients [4]: ≤ 23 months
- fewer cells than in control cultures (PANC-1 cells): 31%
- reduction of cell number from control levels (SCC-1 cells; SCC-1, MTS, 48-96 hr, OGF 10^−6 M alone or with carboplatin 10^−7 M): 8-10%
- reduction of cell number from control levels (SCC-1 cells; [6]): approximately 10%
- reduction of cell number from control levels (SCC-1 cells; [7]): 10%
- reduction of cell number from control levels (SCC-1 cells; [8]): 23%
- decrease from control levels in absorbency readings (SCC-1 cells; SCC-1, opioids 10^−6 M daily): 19%
- rates of growth over the 4 day period (SCC-1 cells; SCC-1): notably reduced from control values
- difference in cell number between reversal group and group continuing drug exposure (SCC-1 cells; SCC-1): 16%

Molecule: CC(=O)O[C@H]1C(=O)[C@@]2(C)[C@H]([C@H](OC(=O)c3ccccc3)[C@]3(O)C[C@H](OC(=O)[C@H](O)[C@@H](NC(=O)c4ccccc4)c4ccccc4)C(C)=C1C3(C)C)[C@]1(OC(C)=O)CO[C@@H]1C[C@@H]2O [paclitaxel]
- average life span (SCC-1 SCCHN cells [1]; 50-day study): 34.3 ± 3.1 days
- mice with tumors (SCC-1 SCCHN cells [1]; day 13 after tumor cell inoculation): 66%
- observations on organs after premature death (SCC-1 SCCHN cells [1]; histological analysis): distended abdomens with associated megacolon
- mice that had died by day 40 (SCC-1 SCCHN cells [1]; nude mice with SCC-1 tumors): 75%
- body weight less than controls (SCC-1 SCCHN cells [1]; nude mice with SCC-1 tumors, day 20): 11%
- body weight less than controls, OGF and paclitaxel/OGF treated mice (SCC-1 SCCHN cells [1]; nude mice with SCC-1 tumors, day 50): 28%
- fewer cells than in control cultures (CAL-27 cells): 35%
- growth depressed from control levels (CAL-27 cells; paclitaxel 10^−7 M): 66%
- growth depressed from control levels (CAL-27 cells; paclitaxel 10^−8 M): 53%
- growth depressed from control levels (CAL-27 cells; paclitaxel 10^−9 M): 44%
- growth depressed from control levels (CAL-27 cells; paclitaxel 10^−10 M): 22%
- mice still alive on termination day, % of the group (SCC-1 SCCHN cells [5]; 50 day): 8%
- day on which mice began dying (SCC-1 SCCHN cells [5]; 50 days): 19 days
- inhibition at 0.01 µM (SCC-1 cells; Homo sapiens, read-out: inhibition of cell growth relative to control levels): 8.8 to 26%
- reduction of cell number from control levels (SCC-1 cells; [6]): ~33%
- reduction of cell number from control levels (SCC-1 cells; [7]): 25%
- reduction of cell number from control levels (SCC-1 cells; [8]): 51%
- rates of growth over the 4 day period (SCC-1 cells; SCC-1): notably reduced from control values
- difference in cell number between reversal group and group continuing drug exposure (SCC-1 cells; SCC-1): did not differ
